Measurements published in US20130065818A1, “Arylamide Compounds And Compositions And Uses Thereof” (POLYMEDIX, priority 2006, published 2013).
Several values for one entry are separate records, joined by “and”; a condition that tells them apart may be missing. Identical values can stand only once.

Legend:
[1] = tested on: fluoroquinolone-resistant, methicillin-resistant Staphylococcus aureus (K950); test: NZW rabbit keratitis model, corneal colony counts; format: in vivo; conditions: for Corneal colony count, Mean / Corneal colony count, Median / Corneal colony count, TrMean: N=3; for Corneal colony count, log / Corneal colony count: individual corneas; for Corneal colony count: Inoculum = 1048 cfu/cornea, 1 hour after final drop; for Log10 CFU/ml, group comparison (Duncan Multiple Comparisons Test): P = 0.05, < = significantly fewer colony counts
Excerpt: (§1) One purpose of the following experiments was to compare the efficacy of 1% Oligomer 2, 0.5% Oligomer 2, and 5% vancomycin in the treatment of a fluoroquinolone-resistant, methicillin-resistant Staphylococcus aureus infection in the NZW rabbit keratitis model with or without intact corneal epithelia.
Nothing was done to the right eyes.
as §1, with “0.25%” for “1%”, “with and without 0.005% benzalkonium chloride,” for “0.5% Oligomer 2,”, “epithelia. The 0.005% benzalkonium chloride has been added to try to increase the penetration of 0.25% Oligomer 2 through the corneal epithelium.” for “epithelia.”
One purpose of the following experiments was to determine the efficacy of 0.25% Oligomer 4, with and without 200 μM Farnesol, and 200 μM Farnesol in the treatment of a fluoroquinolone-resistant and methicillin-resistant Staphylococcus aureus infection in the NZW rabbit keratitis model with or without intact corneal epithelia. The 200 μM Farnesol has been added to try to increase the efficacy and penetration of 0.25% Oligomer 4 through the corneal epithelium.

[2] = NZW rabbit keratitis model, clinical evaluation (Total Ocular Score); conditions: for Chemosis score / Conj. score / Corneal Edema score / Corneal Infiltrate score / Discharge score / Iritis score / Total Score: individual eyes, Ker-1, drops every 15 min, 19 doses; for Chemosis score / Conj. score / Corneal Edema score / Corneal Infiltrate score / Discharge score / Iritis score: scale 0 = Normal to 3.0 = Severe; for Total Score: sum of six signs; for Total Ocular Score, Mean / Total Ocular Score, Median / Total Ocular Score, TrMean: N=3
Description: Fifteen rabbits were received from Myrtles' Rabbitry, Thompson Station, TN. The clinical isolate of fluoroquinolone-resistant, methicillin-resistant (MRSA) Staphylococcus aureus (K950) was subcultured on 5% sheep blood agar and incubated at 37° C. in 6% CO2 overnight. The next morning, the MRSA strain was suspended in sterile trypticase soy broth to a 0.5 McFarland Standard, containing approximately 5×10^8 cfu/ml of bacteria. The absorbance of the suspension was measured at 650 nm using a Beckman DU-70 spectrophotometer. OD readings of 0.07 corresponded to 5×10^8 cfu/ml of bacteria. This concentration was appropriately diluted in sterile trypticase soy broth to provide the inoculum of approximately 1,000 (1.0×10^3) cfu/eye in 25 μl. Colony counts were performed on the inoculum to determine the actual cfu inoculated. Following general anesthesia with ketamine and xylazine and topical anesthesia with proparacaine and prior to bacterial inoculation in the left eyes, 6 mm areas of the corneal epithelia was removed centrally with an Amoils epithelial scrubber. Nothing was done to the right eyes. The 15 rabbits were then inoculated intrastromally in both eyes with 25 μl of the bacterial dilution of approximately 10^3 cfu/eye of the bacteria. The bacterial inoculation of the left eyes was directly under the epithelial defect created by the Amoils epithelial scrubber. The epithelia were removed in the left corneas in order to determine whether this layer of the cornea is a barrier for Oligomer 2 penetration when compared to the right cornea with an intact epithelium. A colony count was done on the inoculum to determine the actual cfu inoculated. The rabbits were immediately treated with analgesia in the form of and intramuscular injection of ketoprofen, 1.5 mg/kg. After 4 hours, the 15 rabbits were divided into 4 treatment groups and one untreated control group sacrificed at the onset of therapy. Both eyes of each rabbit of the treatment groups were treated with one 37 μl drop of the coded solutions or control Saline or 1 drop of vancomycin from its dropper bottle. The Oligomer 2 concentrations were masked and labeled as 1 and 2. The masked concentrations were 1% Oligomer 2 and 0.5% Oligomer 2 but the specific concentrations of solutions were not known to the lab workers who carried out the experiment. The vancomycin and control (Tris-Buffered Saline) were not masked.
Treatment was scheduled for every 15 minutes for 5 hours (21 total doses). However, PMX-1 and PMX-2 were exhausted after the 19th dose. Therefore, the actual treatment was 15 minutes for 4.5 hours (19 total doses). The 3 rabbits in group V were sacrificed 4 hours PI and large 9.5 mm buttons were removed from the corneas. These were placed in 1 ml of PBS and kept on ice. The corneal buttons were homogenized for 25 seconds on ice using the motorized homogenizer. After homogenization, colony counts were done on the homogenates using 5% sheep blood agar plates to determine the amount of bacteria contained in the corneas at the onset of therapy. Following the completion of therapy, the eyes were examined for clinical signs of infection. One hour after the final treatment, the treated rabbits (Groups I-IV) were sacrificed and large 9.5 mm buttons were removed from the corneas. These were placed in 1 ml of PBS and kept on ice. The corneal buttons were homogenized for 25 seconds on ice using the motorized homogenizer. After homogenization, colony counts were performed on the homogenates using 5% sheep blood agar plates to determine the amount of bacteria contained in the corneas after treatment. The next morning, the plates were counted and the number of cfu/eye of Staphylococcus aureus was determined for each cornea.
Fifteen rabbits were received from Myrtles' Rabbitry, Thompson Station, TN.

[3] = tested on: H. influenzae (HI); test: MIC of clinical ocular isolates (Example 1); format: cell-based; conditions: Haemophilus influenzae; HI clinical ocular isolates (n=26)
[4] = tested on: Serratia marcescens (SM); test: MIC of clinical ocular isolates (Example 1); format: cell-based; conditions: SM clinical ocular isolates (n=27)
[5] = tested on: Moraxella Species (MS); test: MIC of clinical ocular isolates (Example 1); format: cell-based; conditions: MS clinical ocular isolates (n=25)
[6] = tested on: St. pneumoniae (SP); test: MIC of clinical ocular isolates (Example 1); format: cell-based; conditions: Streptococcus pneumoniae; SP clinical ocular isolates (n=27)
[7] = tested on: St. viridans group (SV); test: MIC of clinical ocular isolates (Example 1); format: cell-based; conditions: Streptococcus viridans
[8] = tested on: CS S. epidermidis (CSSE); test: MIC of clinical ocular isolates (Example 1); format: cell-based; conditions: Staphylococcus epidermidis; CSSE clinical ocular isolates (n=26)
[9] = tested on: Ciprofloxacin Resistant (CR) S. aureus (CRSA); test: MIC of clinical ocular isolates (Example 1); format: cell-based; conditions: Staphylococcus aureus; CRSA clinical ocular isolates (n=28)
[10] = tested on: CR S. epidermidis (CRSE); test: MIC of clinical ocular isolates (Example 1); format: cell-based; conditions: Staphylococcus epidermidis; CRSE clinical ocular isolates (n=26)
[11] = tested on: Ciprofloxacin Susceptible (CS) S. aureus (CSSA); test: MIC of clinical ocular isolates (Example 1); format: cell-based; conditions: Staphylococcus aureus; CSSA clinical ocular isolates (n=27)
[12] = tested on: P. aeruginosa (PA); test: MIC of clinical ocular isolates (Example 1); format: cell-based; conditions: Pseudomonas aeruginosa; PA clinical ocular isolates (n=26)

SMILES: CN[C@H](CC(C)C)C(=O)N[C@H]1C(=O)N[C@@H](CC(N)=O)C(=O)N[C@H]2C(=O)N[C@H]3C(=O)N[C@H](C(=O)N[C@H](C(=O)O)c4cc(O)cc(O)c4-c4cc3ccc4O)[C@H](O)c3ccc(c(Cl)c3)Oc3cc2cc(c3O[C@@H]2O[C@H](CO)[C@@H](O)[C@H](O)[C@H]2O[C@H]2C[C@](C)(N)[C@H](O)[C@H](C)O2)Oc2ccc(cc2Cl)[C@H]1O [VAN]
- Corneal colony count, Mean ([1]; Abraded Epithelium): 2.674 Log10 CFU/ml
- Corneal colony count, Median ([1]; Abraded Epithelium): 2.845 Log10 CFU/ml
- Corneal colony count, TrMean ([1]; Abraded Epithelium): 2.674 Log10 CFU/ml
- Corneal colony count, log ([1]; Abraded Epithelium): 2.301 Log10 CFU/ml and 2.845 Log10 CFU/ml and 2.875 Log10 CFU/ml
- Corneal colony count ([1]; Abraded Epithelium): 200 CFU/ml and 700 CFU/ml and 750 CFU/ml
- Log10 CFU/ml, group comparison (Duncan Multiple Comparisons Test) ([1]; Abraded Epithelium): PMX-2 = VAN = PMX-1 < ONSET = CON
- Corneal colony count, Mean ([1]; Intact Epithelium): 2.7239 Log10 CFU/ml
- Corneal colony count, Median ([1]; Intact Epithelium): 2.7404 Log10 CFU/ml
- Corneal colony count, TrMean ([1]; Intact Epithelium): 2.7239 Log10 CFU/ml
- Corneal colony count, log ([1]; Intact Epithelium): 2.74 Log10 CFU/ml and 2.653 Log10 CFU/ml and 2.778 Log10 CFU/ml
- Corneal colony count ([1]; Intact Epithelium): 550 CFU/ml and 450 CFU/ml and 600 CFU/ml
- Log10 CFU/ml, group comparison (Duncan Multiple Comparisons Test) ([1]; Intact Epithelium): VAN < PMX-1 = PMX-2 = ONSET = CON
- Chemosis score ([2]; Abraded Epithelium (AE)): 3.0 and 2.5 (2×)
- Conj. score ([2]; Abraded Epithelium (AE)): 3.0 and 2.5 (2×)
- Corneal Edema score ([2]; Abraded Epithelium (AE)): 0.5 and 1.0 (2×)
- Corneal Infiltrate score ([2]; Abraded Epithelium (AE)): 0.5 and 0 (2×)
- Discharge score ([2]; Abraded Epithelium (AE)): 3.0 and 2.0 and 2.5
- Iritis score ([2]; Abraded Epithelium (AE)): 1.0 and 1.5 (2×)
- Total Score ([2]; Abraded Epithelium (AE)): 11.0 and 9.5 and 10.0
- Total Ocular Score, Mean ([2]; Abraded Epithelium): 10.167
- Total Ocular Score, Median ([2]; Abraded Epithelium): 10.000
- Total Ocular Score, TrMean ([2]; Abraded Epithelium): 10.167
- Total Ocular Score, group comparison (Duncan Multiple Comparisons Test) ([2]; IE and AE groups, P = 0.05): CON IE = CON AE < VAN AE = PMX-1AE = PMX-2AE = VAN IE < PMX-1 IE = PMX-2 IE
- Chemosis score ([2]; Intact Epithelium (IE)): 3.0
- Conj. score ([2]; Intact Epithelium (IE)): 2.5 and 3.0 (2×)
- Corneal Edema score ([2]; Intact Epithelium (IE)): 1.0
- Corneal Infiltrate score ([2]; Intact Epithelium (IE)): 0 (2×) and 0.5
- Discharge score ([2]; Intact Epithelium (IE)): 3.0 (2×) and 2.5
- Iritis score ([2]; Intact Epithelium (IE)): 2.0 (2×) and 1.0
- Total Score ([2]; Intact Epithelium (IE)): 11.5 and 12.0 and 11.0
- Total Ocular Score, Mean ([2]; Intact Epithelium): 11.500
- Total Ocular Score, Median ([2]; Intact Epithelium): 11.500
- Total Ocular Score, TrMean ([2]; Intact Epithelium): 11.500

SMILES: CC(C)(C)c1cc(NC(=O)CCCCNC(=N)N)c(SCCNC(=N)N)c(NC(=O)c2cc(C(=O)Nc3cc(C(C)(C)C)cc(NC(=O)CCCCNC(=N)N)c3SCCNC(=N)N)ncn2)c1 [Oligomer 1]
- MIC50 [3]: 16 µg/mL
- MIC90 [3]: 32 µg/mL
- MIC50 [4]: 16 µg/mL
- MIC90 [4]: 64 µg/mL
- MIC50 [5]: 0.5 µg/mL
- MIC90 [5]: 0.5 µg/mL
- MIC50 [6]: 0.5 µg/mL
- MIC90 [6]: 1 µg/mL
- MIC50 [7]: 4 µg/mL
- MIC90 [7]: 16 µg/mL
- MIC50 [8]: 0.03 µg/mL
- MIC90 [8]: 0.125 µg/mL
- MIC50 [9]: 0.25 µg/mL
- MIC90 [9]: 0.25 µg/mL
- MIC50 [10]: 0.03 µg/mL
- MIC90 [10]: 0.03 µg/mL
- MIC50 [11]: 0.125 µg/mL
- MIC90 [11]: 0.25 µg/mL
- MIC50 [12]: 4 µg/mL
- MIC90 [12]: 8 µg/mL
